System: A-375 Melanoma
Assay: Therapeutic efficacy of LipoCam in A-375 melanoma of nude mice
Type: in vivo
Conditions: iv, three times a week for three weeks, equitoxic doses; s.c. A-375 tumors; FIG. 11
Description: NMRI-nude mice were purchased from Elevage Janvier and housed in isolated ventilated cages under save environmental conditions (SPF facility, 22° C., 30-70% humidity, 12 h light/dark cycle) with food and water ad libitum. Experimental design was reviewed and approved by local government.
Tumor cells (A-375 human melanoma cell line, ATCC Nr.: CRL-1619) were grown as described in the data sheet supplied by ATCC. Tumor cells (5×10^6 in PBS) were inoculated s.c. in the right dorsal flank of mice in a volume of 50 μl on day 0.
Mice were assigned to the experimental groups (8 animals per cage), housed and handled (including monitoring of the body weight gain) at least five days before tumor inoculation (=day −6 to 0). […] Equitoxic doses of the compounds were determined in separate experiments, where toxicity was evaluated based on haematological parameters, body weight and animal clinical observations. […]
Animals were clinically monitored during the whole experiment and for at least one week after treatment was finished. […] The tumor dimensions were measured by calliper and the tumor size was calculated according to the following formula: V=πLW^2/6 (L=greatest length, W=width of perpendicular axis). […] The number of red and white blood cells and platelets were determined using an automated cell counter (Abbott Cell Dyn 3500).

CC[C@@](O)(C(=O)[O-])c1cc2n(c(=O)c1CO)Cc1cc3ccccc3nc1-2.[Na+] [CPT-Na-Carboxylate]
anti-tumor effect (in words): only a retardation as compared to the control group

From patent US20100178243A1, “Novel method of stabilizing diagnostic and therapeutic compounds in a cationic carrier system” (MediGene AG, priority 2002, published 2010)
